Laboratory results as given in patent US20210046101A1, “COMBINATION THERAPEUTICS” (UCL BUSINESS LTD, priority 2018, published 2021).
Where a SMILES comes first, the peptide text is derived from it. The star is where a group is joined. Cbz = O=C(OCc1ccccc1)*; CH2F = FC*

What was measured:
[1] = system: PMKs derived from Hoip^E-KO mice; experiment: Viability of primary murine keratinocytes (PMKs) from Hoip^E-KO mice cultured with inhibitors, CellTiter-Glo assay; assay type: cell-based, mouse; details: no exogenous stimulus, cultured four days with 20 μM Z-VAD-fmk, 10 μM Necrostatin-1s or 1 μM RIPK3 inhibitor (FIG. 3e)
Description: FIG. 3. Aberrant apoptosis drives lethal dermatitis in Hoip^E-KO and Hoil-1^E-KO mice. a, Quantification of TUNEL and CC3 positive cells in skin sections from mice with the indicated genotypes (n=3 mice per genotype). Error bars represent mean values±s.e.m. *P≤0.05, **P≤0.01, ***P≤0.001. b, Representative images of skin sections from mice with the indicated genotypes (n=4) stained with antibody against CD45 (red) at P0. Nuclei were stained with DAPI (blue). White dashed lines separate the epidermis (above) from the dermis (below). Scale bar, 50 μm. c, Flow cytometry analysis of immune cells in skin samples from mice with the indicated genotypes at the indicated postnatal days. […] Lysates and IP were analysed by Western blotting for the indicated proteins. e, PMKs derived from Hoip^E-KO and control mice were cultured for four days in absence (NT: not-treated) or presence of the inhibitors Necrostatin-1s (N), ZVAD-fmk (Z) or RIPK3i. Cell viability (%) was measured by CellTiter-Glo assay on day four. […] CC3: cleaved Caspase-3. f, Cell viability (%) measured by CellTiter-Glo assay of PMKs derived from adult mice with the indicated genotypes. Results are expressed as mean values±SEM (n=8 mice per genotype). […] CC3: cleaved Caspase-3. i, Quantification of TUNEL and CC3 positive cells in skin sections from mice with the indicated genotypes (n=3 mice per genotype). […]

[2] = system: PMKs derived from Tnfr1^KO;Hoil-1^E-KO mice; experiment: Viability of PMKs from Tnfr1^KO;Hoil-1^E-KO mice after death ligand / Poly(I:C) stimulation, CellTiter-Glo assay; assay type: cell-based, mouse; details: 24 hours; TRAIL 50 ng/ml, CD95L 50 ng/ml, Poly(I:C) 100 μg/ml; control = Tnfr1^KO PMKs with HOIL-1 (FIG. 4a)
Procedure: FIG. 4. CD95L- and TRAIL-induced cell death drives TNFR1-independent dermatitis. a, PMKs derived from adult mice with the indicated genotypes were treated or not for 24 hours with TRAIL [50 ng/ml], CD95L [50 ng/ml] and Poly(I:C) [100 μg/ml]. Cell viability (%) was measured by CellTiter-Glo assay. Results are expressed as mean values±SEM. (n=7 mice per genotype). **p≤0.01, ***p≤0.001, NS=not significant. Control mice represent a pool of Tnfr1^KO;Hoil-1^fl/fl;K14-Cre− and Tnfr1^KO;Hoil-1^fl/wt;K14-Cre+ mice b, Representative images of mice with the indicated genotypes. c, Severity score of dermatitis was assessed at P70 in mice with the indicated genotypes. The total score was determined by evaluating the regions of the body affected by the lesions (black) and the character of the lesion (white). Tnfr1^KO;Hoil-1^E-KO (n=6), Trail-r^KO;Tnfr1^KO;Hoil-1^E-KO (n=4), Tlr3^KO;Tnfr1^KO;Hoil-1^E-KO (n=4), Cd95^E-DD; Tnfr1^KO; Hoil-1^E-KO (n=12), Trail-r^KO; Tlr3^KO;Tnfr1^KO;Hoil-1^E-KO (n=20) and Cd95^E-DD;Trail-r^KO;Tnfr1^KO;Hoil-1^E-KO (n=19), Mlkl^KO;Tnfr1^KO;Hoip^E-KO (n=13). d, Kaplan-Meier survival curve of mice with the indicated genotypes. […]
Isolation, culture and viability of primary murine keratinocytes. […] On the last day, cell viability was measured using the CellTiter-Glo Luminescent Cell Viability Assay kit (Promega) following the manufacturers instructions. […]

Molecule | loss in viability of HOIP-deficient PMKs (cell viability, CellTiter-Glo) [1] | cell viability as compared to control PMKs (CellTiter-Glo) [2]
CN1C(=O)NC(Cc2c[nH]c3c(Cl)cccc23)C1=O (stereo not shown) [necrostatin-1s, Necrostatin-1s] | prevented | –
COC(=O)C[C@H](NC(=O)[C@H](C)NC(=O)[C@@H](NC(=O)OCc1ccccc1)C(C)C)C(=O)CF [ZVAD, Z-VAD-fmk] (Cbz-Val-Ala-Asp(OMe)-CH2F) | prevented | –
Polyinosinic:polycytidylic acid [Poly(I:C)] | – | decreased cell viability
TRAIL: TNF-related apoptosis-inducing ligand; used as mouse iz-TRAIL (protein, UniProt P50592 39-291, looked up, extracellular domain isoleucine zipper fusion) extracellular domain: YMYFTNEMKQLQDNYSKIGLACFSKTDEDFWDSTDGEILNRPCLQVKRQLYQLIEEVTLRTFQDTISTVPEKQLSTPPLPRGGRPQKVAAHITGITRRSNSALIPISKDGKTLGQKIESWESSRKGHSFLNHVLFRNGELVIEQEGLYYIYSQTYFRFQEAEDASKMVSKDKVRTKQLVQYIYKYTSYPDPIVLMKSARNSCWSRDAEYGLYSIYQGGLFELKKNDRIFVSVTNEHLMDLDQEASFFGAFLIN | – | decreased cell viability
